Measured values reported in article PMC4129416, “YLT192, a Novel, Orally Active Bioavailable Inhibitor of VEGFR2 Signaling with Potent Antiangiogenic Activity and Antitumor Efficacy in Preclinical Models” (Scientific Reports, 2014).

Columns and labels:
A2058 = experiment: Inhibition of tumor cell growth; assay type: cell-based; conditions: A2058, human melanoma; 48 hour treatment; means ± SD, n=3
Experimental: (§1) The proliferative inhibitory ability of YLT192 on tumor cells was investigated. […] Inhibition of cell proliferation is a possible approach for cancer treatment. EdU incorporation assay was performed to investigate the anti-proliferative effects of YLT192 against U251 and HCT116 cells.
(§2) treatment with YLT192. Data are means ± SD, n=3.

BxPC-3 = experiment: Inhibition of tumor cell growth; assay type: cell-based; conditions: BxPC-3, human pancreatic cancer; 48 hour treatment; means ± SD, n=3
Experimental: as §1, §2
(§3) cell line cell type IC50(μM) […]

PANC-1 = experiment: Inhibition of tumor cell growth; assay type: cell-based; conditions: PANC-1, human pancreatic cancer; 48 hour treatment; means ± SD, n=3
Experimental: as §1, §2, §3

Hep G2 = experiment: Inhibition of tumor cell growth; assay type: cell-based; conditions: HepG2; Hep G2, human hepatocellular carcinoma; 48 hour treatment; means ± SD, n=3
Experimental: as §1, §2, §3

Hela = experiment: Inhibition of tumor cell growth; assay type: cell-based; conditions: human epithelial carcinoma, 48 hour treatment, means ± SD, n=3
Source text: (§4) Data are means ± SD, n=3.
as §3

SPC-A1 = experiment: Inhibition of tumor cell growth; assay type: cell-based; conditions: SPCA1; SPC-A1, human lung cancer; 48 hour treatment; means ± SD, n=3
Source text: as §4, §3

MV4-11 = experiment: Inhibition of tumor cell growth; assay type: cell-based; conditions: MV4-11, human acute myeloid leukemia; 48 hour treatment; means ± SD, n=3
Source text: as §4, §3

SW620 = experiment: Inhibition of tumor cell growth; assay type: cell-based; conditions: SW-620; SW620, human colorectal carcinoma; 48 hour treatment; means ± SD, n=3
Source text: as §4, §3

MCF-7 = experiment: Inhibition of tumor cell growth; assay type: cell-based; conditions: MCF7; MCF-7, human mammary carcinoma; 48 hour treatment; means ± SD, n=3
Source text: as §4, §3

A431 = experiment: Inhibition of tumor cell growth; assay type: cell-based; conditions: A-431; A431, human pidermoid carcinoma; 48 hour treatment; means ± SD, n=3
Source text: as §4, §3

SKOV-3 = experiment: Inhibition of tumor cell growth; assay type: cell-based; conditions: SK-OV-3; SKOV-3, human ovarian carcinoma; 48 hour treatment; means ± SD, n=3
Source text: as §4, §3

SMMC-7721 = experiment: Inhibition of tumor cell growth; assay type: cell-based; conditions: SMMC-7721, human hepatocellular carcinoma; 48 hour treatment; means ± SD, n=3
Source text: as §4, §3

LS147T = experiment: Inhibition of tumor cell growth; assay type: cell-based; conditions: human colorectal carcinoma, 48 hour treatment, means ± SD, n=3
Source text: as §4, §3

BEL7402 = experiment: Inhibition of tumor cell growth; assay type: cell-based; conditions: Bel-7402; BEL7402, human hepatocellular carcinoma; 48 hour treatment; means ± SD, n=3
Source text: as §4, §3

MDA-MB-231 = experiment: Inhibition of tumor cell growth; assay type: cell-based; conditions: MDA-MB-231, human mammary carcinoma; 48 hour treatment; means ± SD, n=3
Source text: as §4, §3

[1] = tested on: VEGFR2 signaling pathway in HUVEC; experiment: Western blot of VEGF-induced VEGFR2 phosphorylation and downstream signalling in HUVEC; assay type: cell-based, human; conditions: concentration-dependent
Experimental: Figure 2 Effects of YLT192 on HUVECs proliferation, migration, invasion and tube formation. […] Cells were wounded by the pipette and then treated with various concentrations of compounds for 24 hours. Migrated cells were quantified by manual counting (50×). […] The bottom chambers of the transwells were filled with 600 μL EGM2 containing various growth factors while the top chambers were seeded with 4 × 10^4 HUVECs in EBM2 and treated with different concentrations of compounds for 24 hours. Cells invaded through the membrane were stained and quantified (100×). […] HUVECs were seeded on Matrigel layer and treated with different concentrations of compounds. HUVECs tube formation was assessed 6 hours later (50×). One representative experiment of three is shown. For (A), (B) and (C), data represent the mean ± SEM of three different experiments. Each experiment was performed in duplicate.*P < 0.05, **P < 0.01. (D) YLT192 inhibited VEGF-induced phosphorylation of VEGFR2 and its downstream signal regulator p44/42 MAPK, STAT3 and AKT in HUVECs. One representative Western blot of three is presented. Each has the expression of β-actin as internal control. The full size blots were shown in the Supplemental Figure S5 online. (E) Cellular thermal shift assay showing VEGFR2 target engagement by YLT192 in intact HUVECs. One representative Western blot of two is presented. […]

[2] = Body weight of tumor-bearing mice during treatment; assay type: in vivo; conditions: U251 and HCT116 tumor-bearing mice; 25, 50 and 100 mg/kg oral daily
Experimental: Figure 5 Anti-tumor activities of YLT192 in vivo. (A) U251 and HCT116 tumor-bearing mice were treated orally with YLT192 at 25, 50 and 100 mg/kg or vehicle daily, respectively. […] (B) Body weight changes in YLT192 and vehicle treated mice. […] For A and B, data are means ± SD. (C) and (D), YLT192 inhibited tumor cell proliferation in HCT116 tumor tissues in vivo. Mice bearing HCT116 tumor xenograft were treated with YLT192 at 50 and 100 mg/kg or vehicle and sacrificed at the end of the experiment. The tumor tissues were removed for further immunohistochemistry analysis using anti-Ki67 (C) and anti-p-p44/42 MAPK antibodies (D). (E) YLT192 induced tumor cell apoptosis in HCT116 tumor in vivo. Apoptosis was measured by TUNEL staining (n = 6 mice per group). Scale bars represent 100 μm.
All animal experiments were approved and conducted by the Institutional Animal Care and Treatment Committee of Sichuan University in China (Permit Number: 20121205). […] Tumor growth and body weight was measured every three days during the treatment. Tumor volumes were calculated using the formula as follow: volume (mm^3) = 0.5 × length (mm) × width (mm)^2. Growth inhibition was calculated from the start of treatment by comparison of the mean change in tumor volume for vehicle and treated group as before.

In the case of `CNC(=O)c1cc(Oc2ccc(NC(=O)c3cccc(OC)c3)cc2)ccn1` [YLT192], the IC50 (A2058) is reported as 10.7 ± 1.1 µM, the IC50 (BxPC-3) is reported as 8.2 ± 0.6 µM and the IC50 (PANC-1) is reported as 9.8 ± 1.9 µM. For the same compound, the IC50 (Hep G2) was 7.9 ± 0.5 µM, the IC50 (Hela) was 18.9 ± 2.4 µM and the IC50 (SPC-A1) was 16.4 ± 1.4 µM. The IC50 (MV4-11) was 21.9 ± 1.9 µM, the IC50 (SW620) was 7.9 ± 1.7 µM and the IC50 (MCF-7) was 16.8 ± 1.7 µM. It also gave an IC50 (A431) of 7.7 ± 0.9 µM, an IC50 (SKOV-3) of 8.2 ± 1.5 µM and an IC50 (SMMC-7721) of 12.1 ± 1.6 µM. The IC50 (LS147T) was 9 ± 1.1 µM, the IC50 (BEL7402) was 11.3 ± 1.1 µM and the IC50 (MDA-MB-231) was 11.9 ± 2.1 µM. For the same compound, the “VEGF-stimulated phosphorylation of VEGFR2 and downstream p44/42 MAPK, AKT, and STAT3” value [1] was “clearly reduced” and the “body weight vs vehicle group” value [2] was “no significant difference”.
